Experimental data: ChEMBL document CHEMBL1208726, “Synthesis and anti-inflammatory activity of some 3-(4,6-disubtituted-2-thioxo-1,2,3,4-tetrahydropyrimidin-5-yl) propanoic acid derivatives” (2010)

How the values were obtained:
Assay type in all cases: functional
Rattus norvegicus [1] = test: Antiinflammatory activity in Albino rat assessed as inhibition of carrageenan-induced paw volume at 20 mg/kg, po administered 1 hr before carrageenan challenge measured after 2 hrs
Rattus norvegicus [2] = test: Antiinflammatory activity in Albino rat assessed as inhibition of carrageenan-induced paw volume at 20 mg/kg, po administered 1 hr before carrageenan challenge measured after 1 hr
Rattus norvegicus [3] = test: Antiinflammatory activity in Albino rat assessed as reduction of carrageenan-induced paw volume at 20 mg/kg, po administered 1 hr before carrageenan challenge measured after 24 hrs (reference value: 1.39 +/- 0.053 ml)
Rattus norvegicus [4] = test: Antiinflammatory activity in Albino rat assessed as reduction of carrageenan-induced paw volume at 20 mg/kg, po administered 1 hr before carrageenan challenge measured after 3 hrs (reference value: 1.63 +/- 0.059 ml)
Rattus norvegicus [5] = test: Antiinflammatory activity in Albino rat assessed as inhibition of carrageenan-induced paw volume at 20 mg/kg, po administered 1 hr before carrageenan challenge measured after 3 hrs
Rattus norvegicus [6] = test: Antiinflammatory activity in Albino rat assessed as reduction of carrageenan-induced paw volume at 20 mg/kg, po administered 1 hr before carrageenan challenge measured after 2 hrs (reference value: 1.905 +/- 0.046 ml)
Rattus norvegicus [7] = test: Antiinflammatory activity in Albino rat assessed as reduction of carrageenan-induced paw volume at 20 mg/kg, po administered 1 hr before carrageenan challenge measured after 1 hr (reference value: 1.925 +/- 0.1011 ml)
Rattus norvegicus [8] = test: Antiinflammatory activity in Albino rat assessed as reduction of carrageenan-induced paw volume at 20 mg/kg, po administered 1 hr before carrageenan challenge measured after 4 hrs (reference value: 1.44 +/- 0.046 ml)
Rattus norvegicus [9] = test: Antiinflammatory activity in Albino rat assessed as inhibition of carrageenan-induced paw volume at 20 mg/kg, po administered 1 hr before carrageenan challenge measured after 4 hrs
Rattus norvegicus [10] = test: Antiinflammatory activity in Albino rat assessed as inhibition of carrageenan-induced paw volume at 20 mg/kg, po administered 1 hr before carrageenan challenge measured after 24 hrs

Structure (SMILES) | inhibition in vivo at 20 mg/kg (Rattus norvegicus [1]) [%] | inhibition in vivo at 20 mg/kg (Rattus norvegicus [2]) [%] | Activity (Rattus norvegicus [3]) [mL] | Activity (Rattus norvegicus [4]) [mL] | inhibition in vivo at 20 mg/kg (Rattus norvegicus [5]) [%] | Activity (Rattus norvegicus [6]) [mL] | Activity (Rattus norvegicus [7]) [mL] | Activity (Rattus norvegicus [8]) [mL] | inhibition in vivo at 20 mg/kg (Rattus norvegicus [9]) [%] | inhibition in vivo at 20 mg/kg (Rattus norvegicus [10]) [%]
O=C(O)CCC1=C(c2ccc(Cl)cc2)NC(=S)NC1c1ccco1 (stereo not given) | 17.9 | 30.4 | 1.39 | 1.54 | 5.52 | 1.56 | 1.34 | 1.47 |  | 
O=C(O)CCC1=C(c2ccc(Cl)cc2)NC(=S)NC1c1ccccc1O (stereo not given) | 14.7 | 9.61 | 1.46 | 1.61 | 1.22 | 1.62 | 1.74 | 1.58 |  | 
O=C(O)Cc1ccccc1Nc1c(Cl)cccc1Cl [DICLOFENAC] | 17.9 | 21.6 | 1.51 | 1.29 | 20.9 | 1.56 | 1.51 | 1.34 | 6.94 | 
O=C(O)CCC1=C(c2ccccc2)NC(=S)NC1c1ccco1 (stereo not given) | 21.8 | 28.8 | 1.16 | 1.47 | 9.81 | 1.49 | 1.37 | 1.36 | 5.55 | 16.5
COc1ccc(C2=C(CCC(=O)O)C(c3ccccc3O)NC(=S)N2)cc1 (stereo not given) | 27 | 28.3 | 1.2 | 1.29 | 20.9 | 1.39 | 1.38 | 1.33 | 7.63 | 13.7
COc1cc(C2NC(=S)NC(c3ccc(C)cc3)=C2CCC(=O)O)cc(OC)c1OC (stereo not given) | 14.2 | 20.5 | 1.54 | 1.37 | 15.9 | 1.63 | 1.53 | 1.44 |  | 
O=C(O)CCC1=C(c2ccccc2)NC(=S)NC1c1ccccc1O (stereo not given) | 28.6 | 33 | 1.36 | 1.42 | 12.9 | 1.36 | 1.29 | 1.49 |  | 2.15
COc1cc(C2NC(=S)NC(c3ccc(C)cc3)=C2CCC(=O)O)ccc1O (stereo not given) | 1.57 |  | 1.55 | 1.79 |  | 1.87 | 1.96 | 1.69 |  | 
Cc1ccc(C2=C(CCC(=O)O)C(c3ccco3)NC(=S)N2)cc1 (stereo not given) | 28.1 | 33 | 1.19 | 1.46 | 10.4 | 1.37 | 1.29 | 1.38 | 4.16 | 14.4
O=C(O)CCC1=C(c2ccc(Cl)cc2)NC(=S)NC1c1ccccn1 (stereo not given) | 21.8 | 22.1 | 1.3 | 1.54 | 5.52 | 1.49 | 1.5 | 1.6 |  | 6.47
O=C(O)CCC1=C(c2ccc(F)cc2)NC(=S)NC1c1ccco1 (stereo not given) | 14.2 | 24.7 | 1.48 | 1.57 | 3.68 | 1.63 | 1.45 | 1.56 |  | 
